From PubChem BioAssay AID248 (DTP/NCI, 2004)
“And” between values parts separate entries of the source, which are not always exact repeats. Identical values can stand only once. Inconclusive results and toxic doses are left out. No stated cut-off is given here; in the data, active means T/C of 150% or more; inactive means T/C below 125%.

Test system: L1210 leukemia ip in BDF1 mice, survival T/C
Test: NCI In Vivo Anticancer Drug Screen. Data for tumor model L1210 Leukemia (intraperitoneal) in B6D2F1 (BDF1) mice
Settings: endpoint: mean survival time, higher = longer survival
How it was run: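 Tumor cells were implanted, animals were treated, and survival was followed. The result divides the treated measurement by the vehicle-control measurement.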

[1] = dose: 100.0 mg/kg/injection, schedule: Q04DX003 (ip), vehicle: saline with Tween-80
[2] = dose: 200.0 mg/kg/injection, schedule: Q04DX003 (ip), vehicle: saline with Tween-80
[3] = dose: 400.0 mg/kg/injection, schedule: Q04DX003 (ip), vehicle: saline with Tween-80
[4] = dose: 100.0 mg/kg/injection, schedule: Q01DX009 (ip), vehicle: saline
[5] = dose: 100.0 mg/kg/injection, schedule: Q04DX003 (ip), vehicle: saline
[6] = dose: 200.0 mg/kg/injection, schedule: Q01DX009 (ip), vehicle: saline
[7] = dose: 200.0 mg/kg/injection, schedule: Q04DX003 (ip), vehicle: saline
[8] = dose: 50.0 mg/kg/injection, schedule: Q04DX003 (ip), vehicle: saline
[9] = dose: 100.0 mg/kg/injection, schedule: Q01DX001 (ip), vehicle: carboxymethylcellulose (CMC)
[10] = dose: 200.0 mg/kg/injection, schedule: Q01DX001 (ip), vehicle: carboxymethylcellulose (CMC)
[11] = dose: 400.0 mg/kg/injection, schedule: Q01DX001 (ip), vehicle: carboxymethylcellulose (CMC)
[12] = dose: 100.0 mg/kg/injection, schedule: Q01DX001 (ip), vehicle: saline
[13] = dose: 5.0 mg/kg/injection, schedule: Q01DX001 (ip), vehicle: saline
[14] = dose: 10.0 mg/kg/injection, schedule: Q01DX001 (ip), vehicle: saline
[15] = dose: 20.0 mg/kg/injection, schedule: Q01DX001 (ip), vehicle: saline
[16] = dose: 50.0 mg/kg/injection, schedule: Q01DX009 (ip), vehicle: saline with Tween-80
[17] = dose: 100.0 mg/kg/injection, schedule: Q01DX009 (ip), vehicle: saline with Tween-80
[18] = dose: 25.0 mg/kg/injection, schedule: Q04DX002 (ip), vehicle: Klucel (hydroxypropylcellulose) (HPC)
[19] = dose: 50.0 mg/kg/injection, schedule: Q04DX002 (ip), vehicle: Klucel (hydroxypropylcellulose) (HPC)
[20] = dose: 200.0 mg/kg/injection, schedule: Q01DX009 (ip), vehicle: saline with Tween-80
[21] = dose: 25.0 mg/kg/injection, schedule: Q04DX003 (ip), vehicle: Klucel (hydroxypropylcellulose) (HPC)
[22] = dose: 50.0 mg/kg/injection, schedule: Q04DX003 (ip), vehicle: Klucel (hydroxypropylcellulose) (HPC)

Measured: T/C

O/N=C1\CCc2ccccc2C(O)C1c1ccccc1 (stereo unspecified)
inactive: [1] 97 % of control | [2] 102 % of control | [3] 88 % of control

NC(CS(N)(=O)=O)C(=O)O (stereo unspecified)
inactive: dose: 75.0 mg/kg/injection, schedule: Q01DX001 (ip), vehicle: saline 97 % of control | dose: 150.0 mg/kg/injection, schedule: Q01DX001 (ip), vehicle: saline 103 % of control | dose: 300.0 mg/kg/injection, schedule: Q01DX001 (ip), vehicle: saline 102 % of control

O=[N+]([O-])CC(O)c1ccc2ccccc2n1 (stereo unspecified)
inactive: dose: 50.0 mg/kg/injection, schedule: Q01DX009 (ip), vehicle: water 100 % of control | [4] 91 % of control | dose: 100.0 mg/kg/injection, schedule: Q01DX009 (ip), vehicle: water 100 % of control | [5] 93 % of control | [6] 94 % of control | dose: 200.0 mg/kg/injection, schedule: Q01DX009 (ip), vehicle: water 87 % of control | [7] 90 % of control

CCNC(Cc1ccccc1)C1CCCO1 (stereo unspecified)
inactive: dose: 6.25 mg/kg/injection, schedule: Q01DX009 (ip), vehicle: saline 108 % of control | dose: 12.5 mg/kg/injection, schedule: Q01DX009 (ip), vehicle: saline 94 % of control | dose: 25.0 mg/kg/injection, schedule: Q01DX009 (ip), vehicle: saline 96 % of control | dose: 25.0 mg/kg/injection, schedule: Q04DX003 (ip), vehicle: saline 98 % of control | dose: 50.0 mg/kg/injection, schedule: Q01DX009 (ip), vehicle: saline 113 % of control | [8] 101 % of control | [4] 92 % of control | [5] 104 % of control

CCOC(=O)Nc1cc(NC(c2ccccc2)c2ccccc2)c([N+](=O)[O-])c(NC(=O)OCC)n1
inactive: [9] 97 % of control | [10] 92 % of control | [11] 92 % of control

Nc1nc2ncn(C3OC(CO)C(O)C3O)c2c(=O)[nH]1 (stereo unspecified)
inactive: [12] 105 % of control | dose: 200.0 mg/kg/injection, schedule: Q01DX001 (ip), vehicle: saline 104 % of control | dose: 400.0 mg/kg/injection, schedule: Q01DX001 (ip), vehicle: saline 104 % of control

CC(C)(C)CC#N
inactive: [13] 100 % of control | [14] 106 % of control | [15] 102 % of control | dose: 40.0 mg/kg/injection, schedule: Q01DX001 (ip), vehicle: saline 106 % of control | dose: 80.0 mg/kg/injection, schedule: Q01DX001 (ip), vehicle: saline 100 % of control | [12] 94 % of control

Nc1ccc(CCCCc2ccc(Cl)cc2Cl)cc1
inactive: dose: 50.0 mg/kg/injection, schedule: Q01DX001 (ip), vehicle: Klucel (hydroxypropylcellulose) (HPC) 100 % of control | [16] 96 % of control | dose: 100.0 mg/kg/injection, schedule: Q01DX001 (ip), vehicle: Klucel (hydroxypropylcellulose) (HPC) 94 % of control | [17] 102 % of control | dose: 200.0 mg/kg/injection, schedule: Q01DX001 (ip), vehicle: Klucel (hydroxypropylcellulose) (HPC) 109 % of control

CC(CSc1ccccc1)NCCO (stereo unspecified)
inactive: [1] 97 % of control

COC1C(O)C(O)OC(CO)C1O (stereo unspecified)
inactive: [8] 112 % of control | [5] 96 % of control | [7] 104 % of control | dose: 400.0 mg/kg/injection, schedule: Q04DX003 (ip), vehicle: saline 96 % of control | dose: 500.0 mg/kg/injection, schedule: Q01DX009 (ip), vehicle: saline 94 % of control | dose: 1000.0 mg/kg/injection, schedule: Q01DX009 (ip), vehicle: saline 104 % of control

Cc1cnnn1-c1cccc(C(F)(F)F)c1
inactive: [18] 92 % of control | [19] 92 % of control | dose: 100.0 mg/kg/injection, schedule: Q04DX002 (ip), vehicle: Klucel (hydroxypropylcellulose) (HPC) 99 % of control and 88 % of control

Cc1ccc(SC2=C(Br)C(=O)c3ccccc3C2=O)cc1
inactive: dose: 37.5 mg/kg/injection, schedule: Q01DX001 (ip), vehicle: carboxymethylcellulose (CMC) 92 % of control | dose: 75.0 mg/kg/injection, schedule: Q01DX001 (ip), vehicle: carboxymethylcellulose (CMC) 94 % of control | dose: 150.0 mg/kg/injection, schedule: Q01DX001 (ip), vehicle: carboxymethylcellulose (CMC) 103 % of control

COc1cc(N=Cc2ccc([N+](=O)[O-])cc2)c2ncccc2c1
inactive: [9] 101 % of control | [10] 94 % of control | [11] 92 % of control

CCN(CC)CCN(C)c1ccc(CO)c2sc3cc(Cl)ccc3c(=O)c12
inactive: dose: 7.81 mg/kg/injection, schedule: Q01DX009 (ip), vehicle: saline 101 % of control | dose: 15.63 mg/kg/injection, schedule: Q01DX009 (ip), vehicle: saline 101 % of control | dose: 31.25 mg/kg/injection, schedule: Q01DX009 (ip), vehicle: saline 100 % of control | dose: 62.5 mg/kg/injection, schedule: Q01DX009 (ip), vehicle: saline 99 % of control

CCCNC(=O)Oc1ccccc1C(=O)NCO
inactive: dose: 100.0 mg/kg/injection, schedule: Q01DX009 (ip), vehicle: other 101 % of control | dose: 200.0 mg/kg/injection, schedule: Q01DX009 (ip), vehicle: other 96 % of control

CC(Cl)C(=O)NC(C)C(=O)O (stereo unspecified)
inactive: dose: 12.5 mg/kg/injection, schedule: Q04DX002 (ip), vehicle: saline 97 % of control | dose: 25.0 mg/kg/injection, schedule: Q04DX002 (ip), vehicle: saline 111 % of control | dose: 50.0 mg/kg/injection, schedule: Q04DX002 (ip), vehicle: saline 97 % of control

C1CC2OC2C1 (stereo unspecified)
inactive: [4] 104 % of control | [1] 97 % of control | [6] 108 % of control | [2] 100 % of control | dose: 400.0 mg/kg/injection, schedule: Q01DX009 (ip), vehicle: saline 105 % of control | [3] 90 % of control

CC(=O)SCCC(=O)NCNC(=O)CCSC(C)=O
inactive: [17] 96 % of control | [1] 93 % of control | [20] 96 % of control | [2] 93 % of control | dose: 400.0 mg/kg/injection, schedule: Q01DX009 (ip), vehicle: saline with Tween-80 100 % of control | [3] 92 % of control

CCC[N+](CCC)(CCC)Cc1ccccc1
inactive: [13] 108 % of control | [14] 98 % of control | [15] 96 % of control

NC(CC(=O)NCC(=O)O)C(=O)O (stereo unspecified)
inactive: dose: 12.5 mg/kg/injection, schedule: Q04DX002 (ip), vehicle: Klucel (hydroxypropylcellulose) (HPC) 105 % of control | [18] 98 % of control | [19] 94 % of control

CN1C(=O)CCS(=O)(=O)C1c1ccc(Cl)c(Cl)c1 (stereo unspecified)
inactive: dose: 12.5 mg/kg/injection, schedule: Q01DX009 (ip), vehicle: Klucel (hydroxypropylcellulose) (HPC) 101 % of control | dose: 25.0 mg/kg/injection, schedule: Q01DX009 (ip), vehicle: Klucel (hydroxypropylcellulose) (HPC) 114 % of control | [21] 105 % of control | dose: 50.0 mg/kg/injection, schedule: Q01DX009 (ip), vehicle: Klucel (hydroxypropylcellulose) (HPC) 103 % of control | [22] 100 % of control | dose: 100.0 mg/kg/injection, schedule: Q01DX009 (ip), vehicle: Klucel (hydroxypropylcellulose) (HPC) 110 % of control | dose: 100.0 mg/kg/injection, schedule: Q04DX003 (ip), vehicle: Klucel (hydroxypropylcellulose) (HPC) 105 % of control | dose: 200.0 mg/kg/injection, schedule: Q01DX009 (ip), vehicle: Klucel (hydroxypropylcellulose) (HPC) 104 % of control | dose: 200.0 mg/kg/injection, schedule: Q04DX003 (ip), vehicle: Klucel (hydroxypropylcellulose) (HPC) 108 % of control

Oc1c(Cl)cc(Cl)c(Cl)c1Cc1c(O)c(Cl)cc(Cl)c1Cl
inactive: dose: 12.5 mg/kg/injection, schedule: Q04DX003 (ip), vehicle: Klucel (hydroxypropylcellulose) (HPC) 109 % of control | [21] 100 % of control | [22] 98 % of control

CC(=O)Nc1ccc(C(C)(C)CC(=O)O)cc1[N+](=O)[O-]
inactive: [16] 90 % of control | [17] 87 % of control | [20] 87 % of control
